Data taken from PubChem BioAssay AID248 (DTP/NCI, 2004).
Where “and” joins values, the source holds several entries; their conditions need not be identical. Equal values may be shown once. Toxic doses and inconclusive results are not listed. Cut-off read from the data, not from the text of the source: active = T/C of 150% or more; inactive = T/C below 125%.

Tested on: L1210 leukemia ip in BDF1 mice, survival T/C
Assay: NCI In Vivo Anticancer Drug Screen. Data for tumor model L1210 Leukemia (intraperitoneal) in B6D2F1 (BDF1) mice
Settings: endpoint: mean survival time, higher = longer survival
How it was run: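 Each compound was tested against a transplantable tumor grown in mice. The endpoint was survival, with treated animals benchmarked against vehicle controls as a simple ratio.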

[1] = dose: 100.0 mg/kg/injection, schedule: Q01DX001 (ip), vehicle: saline
[2] = dose: 200.0 mg/kg/injection, schedule: Q01DX001 (ip), vehicle: saline
[3] = dose: 400.0 mg/kg/injection, schedule: Q01DX001 (ip), vehicle: saline
[4] = dose: 50.0 mg/kg/injection, schedule: Q01DX009 (ip), vehicle: Klucel (hydroxypropylcellulose) (HPC)
[5] = dose: 100.0 mg/kg/injection, schedule: Q01DX009 (ip), vehicle: Klucel (hydroxypropylcellulose) (HPC)
[6] = dose: 100.0 mg/kg/injection, schedule: Q04DX003 (ip), vehicle: Klucel (hydroxypropylcellulose) (HPC)
[7] = dose: 200.0 mg/kg/injection, schedule: Q01DX009 (ip), vehicle: Klucel (hydroxypropylcellulose) (HPC)
[8] = dose: 200.0 mg/kg/injection, schedule: Q04DX003 (ip), vehicle: Klucel (hydroxypropylcellulose) (HPC)
[9] = dose: 50.0 mg/kg/injection, schedule: Q01DX001 (ip), vehicle: saline with Tween-80
[10] = dose: 100.0 mg/kg/injection, schedule: Q01DX001 (ip), vehicle: saline with Tween-80
[11] = dose: 200.0 mg/kg/injection, schedule: Q01DX001 (ip), vehicle: saline with Tween-80
[12] = dose: 400.0 mg/kg/injection, schedule: Q01DX001 (ip), vehicle: saline with Tween-80
[13] = dose: 400.0 mg/kg/injection, schedule: Q04DX003 (ip), vehicle: Klucel (hydroxypropylcellulose) (HPC)
[14] = dose: 100.0 mg/kg/injection, schedule: Q04DX003 (ip), vehicle: saline with Tween-80
[15] = dose: 100.0 mg/kg/injection, schedule: Q01DX009 (ip), vehicle: saline with Tween-80
[16] = dose: 200.0 mg/kg/injection, schedule: Q01DX009 (ip), vehicle: saline with Tween-80
[17] = dose: 200.0 mg/kg/injection, schedule: Q04DX003 (ip), vehicle: saline with Tween-80
[18] = dose: 50.0 mg/kg/injection, schedule: Q01DX009 (ip), vehicle: saline with Tween-80
[19] = dose: 400.0 mg/kg/injection, schedule: Q04DX003 (ip), vehicle: saline with Tween-80

Measured: T/C

CC(C)(CCN)[N+](=O)[O-]
inactive: [1] 96 % of control | [2] 96 % of control | [3] 102 % of control

CCc1ccc(NC(=O)NC(C)C)cc1
inactive: [4] 113 % of control | [5] 91 % of control | [6] 103 % of control | [7] 103 % of control | [8] 92 % of control

S=C(Nc1cc2c3c(c1)CCCN3CCC2)Nc1cc2c3c(c1)CCCN3CCC2
inactive: [9] 107 % of control | [10] 94 % of control | [11] 97 % of control | [12] 89 % of control

COc1cc(C=Nc2ccccc2C(=O)N/N=C/c2cc(OC)c(OC)c(OC)c2)cc(OC)c1OC
inactive: [6] 97 % of control | [8] 100 % of control | [13] 91 % of control

O=C(C(=S)N1CCOCC1)c1ccccc1
inactive: [6] 101 % of control | [8] 104 % of control | [13] 101 % of control

N=C(N)SCCN1C(=O)c2ccccc2C1=O
inactive: [14] 103 % of control

CC(C)(C)c1cc(C[P+](c2ccccc2)(c2ccccc2)c2ccccc2)cc(C(C)(C)C)c1O
inactive: dose: 1.56 mg/kg/injection, schedule: Q01DX009 (ip), vehicle: saline 106 % of control | dose: 1.56 mg/kg/injection, schedule: Q04DX003 (ip), vehicle: saline 91 % of control | dose: 3.12 mg/kg/injection, schedule: Q01DX009 (ip), vehicle: saline 105 % of control | dose: 3.12 mg/kg/injection, schedule: Q04DX003 (ip), vehicle: saline 96 % of control | dose: 6.25 mg/kg/injection, schedule: Q04DX003 (ip), vehicle: saline 91 % of control

CC(C)(Cl)CCl
inactive: [15] 106 % of control | [14] 101 % of control | [16] 89 % of control | [17] 98 % of control

Cc1cc(/C=C2\C=Cc3ccccc32)ccc1N(C)C
inactive: [1] 94 % of control | [2] 93 % of control | [3] 98 % of control

CC(C)(C)NNC(=O)c1ccccc1
inactive: dose: 75.0 mg/kg/injection, schedule: Q04DX003 (ip), vehicle: saline with Tween-80 106 % of control

COC(COS(=O)(=O)c1ccc(Br)cc1)(c1ccccc1)c1ccccc1
inactive: [18] 87 % of control

NC(=O)CCCCc1ccccc1
inactive: [9] 93 % of control | [10] 98 % of control | [11] 90 % of control

Cc1cc2c(cc1C)[n+]([O-])c1c(=O)[nH]c(=O)nc-1n2CC(O)C(O)C(O)CO (stereo not drawn)
inactive: dose: 100.0 mg/kg/injection, schedule: Q04DX002 (ip), vehicle: saline with Tween-80 98 % of control | dose: 200.0 mg/kg/injection, schedule: Q04DX002 (ip), vehicle: saline with Tween-80 95 % of control

CS(=O)(=O)OCCN1CCC2(CC1)SSC1(CCN(CCOS(C)(=O)=O)CC1)S2
inactive: dose: 6.25 mg/kg/injection, schedule: Q01DX009 (ip), vehicle: saline 98 % of control | dose: 12.5 mg/kg/injection, schedule: Q01DX009 (ip), vehicle: saline 101 % of control | dose: 12.5 mg/kg/injection, schedule: Q04DX003 (ip), vehicle: saline 108 % of control | dose: 25.0 mg/kg/injection, schedule: Q04DX003 (ip), vehicle: saline 95 % of control

O=C(COc1ccc(Cl)c(Cl)c1)NCc1ccc[n+](Cc2ccc(S(=O)(=O)F)cc2Cl)c1
inactive: dose: 25.0 mg/kg/injection, schedule: Q04DX003 (ip), vehicle: saline with Tween-80 109 % of control | dose: 50.0 mg/kg/injection, schedule: Q04DX003 (ip), vehicle: saline with Tween-80 101 % of control | [14] 86 % of control

CS(=O)(=O)OCCCl
inactive: dose: 18.8 mg/kg/injection, schedule: Q01DX010 (ip), vehicle: saline 92 % of control and 96 % of control | dose: 37.5 mg/kg/injection, schedule: Q01DX010 (ip), vehicle: saline 92 % of control and 100 % of control | dose: 75.0 mg/kg/injection, schedule: Q01DX010 (ip), vehicle: saline 101 % of control and 104 % of control | dose: 150.0 mg/kg/injection, schedule: Q01DX010 (ip), vehicle: saline 97 % of control and 102 % of control

C/C(=N/NC(N)=S)c1ccc[nH]1
inactive: dose: 100.0 mg/kg/injection, schedule: Q01DX001 (ip), vehicle: Klucel (hydroxypropylcellulose) (HPC) 108 % of control | dose: 200.0 mg/kg/injection, schedule: Q01DX001 (ip), vehicle: Klucel (hydroxypropylcellulose) (HPC) 93 % of control

Cc1cccc(C)c1NC(=O)c1c(Cl)c(Cl)c(Cl)c(Cl)c1C(=O)O
inactive: dose: 25.0 mg/kg/injection, schedule: Q01DX009 (ip), vehicle: Klucel (hydroxypropylcellulose) (HPC) 95 % of control | [4] 87 % of control | [5] 94 % of control and 88 % of control | [6] 102 % of control | [8] 102 % of control | [13] 107 % of control

O=[N+]([O-])c1ccc2cn[nH]c2c1
inactive: [5] 112 % of control | [6] 95 % of control | [7] 106 % of control | [8] 92 % of control | dose: 400.0 mg/kg/injection, schedule: Q01DX009 (ip), vehicle: Klucel (hydroxypropylcellulose) (HPC) 107 % of control | [13] 96 % of control

OC/C=C/Cl
inactive: dose: 25.0 mg/kg/injection, schedule: Q01DX001 (ip), vehicle: acetone 106 % of control | dose: 50.0 mg/kg/injection, schedule: Q01DX001 (ip), vehicle: acetone 97 % of control | dose: 100.0 mg/kg/injection, schedule: Q01DX001 (ip), vehicle: acetone 98 % of control

CCN(CC)c1ccc(NC(=O)Nc2ccccc2OC)cc1
inactive: [18] 103 % of control | [15] 93 % of control and 101 % of control | [14] 103 % of control | [16] 101 % of control | [17] 97 % of control | dose: 400.0 mg/kg/injection, schedule: Q01DX009 (ip), vehicle: saline with Tween-80 95 % of control | [19] 96 % of control

COC1OC(COS(C)(=O)=O)C(OS(C)(=O)=O)C(OS(C)(=O)=O)C1OS(C)(=O)=O (stereo not drawn)
inactive: [14] 91 % of control and 100 % of control | [17] 93 % of control and 91 % of control | [19] 88 % of control and 94 % of control

CCCCC(=O)N1C(C)CCC1C (stereo not drawn)
inactive: dose: 100.0 mg/kg/injection, schedule: Q04DX002 (ip), vehicle: saline 105 % of control | dose: 200.0 mg/kg/injection, schedule: Q04DX002 (ip), vehicle: saline 88 % of control

CC(C(=O)c1cccs1)=C(C(F)(F)F)C(F)(F)F
inactive: dose: 100.0 mg/kg/injection, schedule: Q04DX003 (ip), vehicle: other 100 % of control | dose: 200.0 mg/kg/injection, schedule: Q04DX003 (ip), vehicle: other 94 % of control | dose: 400.0 mg/kg/injection, schedule: Q04DX003 (ip), vehicle: other 98 % of control

CC(=C(C#N)C#N)c1csc2ccccc12
inactive: dose: 100.0 mg/kg/injection, schedule: Q01DX001 (ip), vehicle: carboxymethylcellulose (CMC) 97 % of control | dose: 200.0 mg/kg/injection, schedule: Q01DX001 (ip), vehicle: carboxymethylcellulose (CMC) 87 % of control | dose: 400.0 mg/kg/injection, schedule: Q01DX001 (ip), vehicle: carboxymethylcellulose (CMC) 92 % of control

S=P(c1ccccc1)(c1ccccc1)P(=S)(c1ccccc1)c1ccccc1
inactive: dose: 100.0 mg/kg/injection, schedule: Q04DX002 (ip), vehicle: Klucel (hydroxypropylcellulose) (HPC) 100 % of control | dose: 200.0 mg/kg/injection, schedule: Q04DX002 (ip), vehicle: Klucel (hydroxypropylcellulose) (HPC) 92 % of control | dose: 400.0 mg/kg/injection, schedule: Q04DX002 (ip), vehicle: Klucel (hydroxypropylcellulose) (HPC) 92 % of control

CC(C)N(CC#N)C(C)C
inactive: dose: 0.25 mg/kg/injection, schedule: Q01DX009 (ip), vehicle: saline with Tween-80 93 % of control | dose: 0.5 mg/kg/injection, schedule: Q01DX009 (ip), vehicle: saline with Tween-80 95 % of control

CCCCCCCCCCc1ccc(CCCCCCCCCC)cc1
inactive: [10] 94 % of control | [11] 92 % of control | [12] 99 % of control

Cc1ncnc2[nH]c(=S)[nH]c12
inactive: dose: 75.0 mg/kg/injection, schedule: Q01DX001 (ip), vehicle: saline 105 % of control | dose: 150.0 mg/kg/injection, schedule: Q01DX001 (ip), vehicle: saline 101 % of control | dose: 300.0 mg/kg/injection, schedule: Q01DX001 (ip), vehicle: saline 100 % of control

Cc1cc2c(-c3ccccc3)c(C(=O)c3ccccc3)c(C(=O)c3ccccc3)c(-c3ccccc3)c2cc1C
inactive: [10] 89 % of control | [11] 89 % of control | [12] 89 % of control
